# Reference: US20210260010A1, “COMPOSITIONS AND METHODS FOR THE REDUCTION OR TREATMENT OF INFLAMMATION” (AXCELLA HEALTH INC., priority 2018, published 2021)
# What was measured:
# Format in all cases: cell-based
# [1] = system: IL-6; assay: IL-6 cytokine secretion by TNFα-stimulated primary human hepatic stellate cells (ELISA)
# Protocol: Primary human hepatic stellate cells were obtained from Samsara Sciences and grown in Complete HSC Medium to […] confluence in T75 or T150 flasks below passage 10 were seeded into 96-well plates and incubated for 6 hours at 37° C., 5% CO2 in a humidified incubator. After 6 hours, plates were removed from the incubator washed with DPBS and pretreated (±single amino acid dropout, ±supplemental amino acid dose; see experiment for medium composition) overnight, ˜14-15 hours. After overnight pretreatment, the medium was removed from the cells, and the same pretreatment medium, now supplemented with 3 ng/mL TNFα was applied. Plates were incubated for 12 hours at 37° C., 5% CO2. After 12 hour stimulus with TNFα, supernatant was removed and frozen at −80° C. in two separate aliquots. Plates were washed and incubated with CCK-8 viability reagent (Dojindo) for 1 hour. Viability was measured on the Synergy plate reader. Immediately, the medium was removed and the plates were fixed for immunofluorescence staining.
# Human CCL2/MCP1 and Human IL-6 were measured by ELISA (Human […] DuoSet ELISA, R&D Systems; Human IL-6 DuoSet ELISA, R&D Systems) at ⅕ and 1/20 dilution in 1× Reagent Diluent (Reagent Ancillary Kit 2, R&D Systems). Data were normalized to the specific per well cell density determined by Hoechst stained nuclei count.
# Tables 39-42 show per-cell normalized IL-6 cytokine secretion in primary human hepatic stellate cells from two donors as a fold change from the plasma amino acid background. Statistical significance calculated by one-way ANOVA with Dunnett's multiple comparison test within each treatment group.
# [2] = system: TNFα; assay: LPS-induced TNFα secretion in primary human monocyte-derived macrophages (ELISA); set-up: TNFa Measurements Mean: unit not given here; conditions: for TNFa Measurements Mean: LPS 0.15 ng/mL; for TNFa Measurements Mean / Donor 2 TNFa Measurements Mean / Donor 3 TNFa Measurements Mean: baseline subtracted; for LPS-induced TNFα secretion: macrophages, 0.15 ng/mL LPS
# Protocol: (§1) Unpurified buffy coats (Research Blood Components) were carefully poured into 50 mL centrifuge tubes and diluted with room temperature Dulbecco's Phosphate Buffered Saline (dPBS) with Calcium and Magnesium (Gibco). Diluted buffy coats were further divided into four total 50 mL centrifuge tubes at 20 mL per tube. Lymphocyte Separation Medium (Corning) was carefully pipetted to the bottom of each centrifuge tube. Mixtures were centrifuged at 850× g for 32 minutes at 20° C. with 0 deceleration and acceleration.
# (§2) The PBMC layer was separated from other components after centrifugation and added to new 50 mL centrifuge tube containing 25 mL dPBS. Total volume was brought up to 50 mL with dPBS and centrifuged at 600×g for 10 minutes at 20° C. with acceleration of 9, deceleration of 5. Supernatant was carefully removed from cell pellets. The cell pellets were resuspended using 10 mL dPBS. Total volume was then brought up to 50 mL using dPBS and centrifuged at 450×g for 5 min at 20° C. with acceleration of 9, deceleration of 9. The supernatant removal and cell pellet resuspension was repeated again.
# (§3) The supernatant was then carefully removed from cell pellets. Cell pellets were resuspended in 10 mL dPBS without calcium or magnesium and filtered through a 70 uM cell strainer. The total PBMC number was determined using a Cellometer K2 automated cell counter. A total of 5E6 cells were saved for flow cytometric analysis. Remaining cells were centrifuged at 490×g for 5 minutes at 20° C. with acceleration of 9, deceleration of 9.
# (§4) CD14+ cells were selected using EasySep™ Human CD14 Positive Selection Kit II ([…] Technologies). Cells were resuspended in cold EasySep™ Buffer ([…] Technologies) at 1×10^8 cells/mL. A total of 100 uL/mL EasySep™ Human CD14 Positive Selection Cocktail II was added to the cell suspension, mixed, and incubated at room temperature for 10 minutes. A total of 100 uL/mL RapidSpheres were added to the mixture and incubated at room temperature for 3 minutes after mixing, then RoboSep buffer was added to bring up the total volume to 10 mL. The mixture in a 15 mL tube was placed in magnet and incubated at room temperature for 3 minutes. Supernatant was discarded and 10 mL fresh EasySep™ buffer was added to 15 mL tube. The addition of RoboSep buffer, mixing, and discarding of supernatant was repeated two more times.
# (§5) Negative and positive fractions were centrifuged at 490×g for 5 minutes at 20° C. with acceleration of 9, deceleration of 9, and resuspended in DMEM (Gibco) and 10% Heat Inactivated Fetal Bovine Serum (Atlanta Bio) and Penicillin/Streptomycin. Cells were counted and centrifuged again at 490× g for 5 minutes at 20° C. with acceleration of 9, deceleration of 9. After centrifugation, cell were resuspended in DMEM (Gibco) and 10% Heat Inactivated Fetal Bovine Serum (Atlanta Bio) and Penicillin/Streptomycin containing 500 U/mL […] and plated at 1-2×10^6 cells/mL on 10 cm tissue culture plates. Cells were kept in 37° C., 5% CO2 in between feedings/harvest.
# (§6) Cells were fed every 3-4 days by removing media and unattached cells, centrifuging at 490× g for 5 minutes at 20° C. with acceleration of 9, deceleration of 9, and resuspending in fresh DMEM (Gibco) and 10% Heat Inactivated Fetal Bovine Serum (Atlanta Bio) and Penicillin/Streptomycin containing GM-CSF. Resuspended cells were seeded back onto 10 cm tissue culture plates and incubated at 37° C., 5% CO2. Differentiated macrophages were used for subsequent experiments.
# (§7) Primary human PMBC derived macrophages were seeded on day 0 at 3.0E4 cells per well in 96-well microplates (ThermoFisher) in Dulbecco's Modified Eagle Medium (DMEM) (Gibco) supplemented with penicillin-streptomycin (Hyclone) and 10% heat inactivated fetal bovine serum (HI-FBS) (Atlanta Bio) and incubated overnight at 37° C., 5% CO2. On day 1, cells were washed once with 150 uL per well DPBS (Gibco) and treated with 75 uL of: • a. […]
# [3] = system: IL-6; assay: LPS-induced IL-6 secretion in primary human monocyte-derived macrophages (ELISA); conditions: for IL-6 Measurements Mean: LPS 0.15 ng/mL, baseline subtracted; for LPS-induced IL-6 secretion: macrophages, 0.15 ng/mL LPS
# Protocol: as §1, §2, §3, §4, §5, §6, §7
smiles,measurement,setting,value
"CC(=O)N[C@@H](CS)C(=O)O [NAC, N-acetylcysteine]",Fold Change IL-6 Secretion Normalized Per Cell,"[1]; donor 1, Conc. 5 X",0.7141
same,Fold Change IL-6 Secretion Normalized Per Cell,"[1]; donor 1, Conc. 10 X",0.7354
same,Fold Change IL-6 Secretion Normalized Per Cell,"[1]; donor 1, Conc. 20 X",0.6121
same,Fold Change IL-6 Secretion Normalized Per Cell,"[1]; donor 1, Conc. 40 X",0.5716
same,Fold Change IL-6 Secretion Normalized Per Cell,"[1]; donor 2, Conc. 5 X",0.9161
same,Fold Change IL-6 Secretion Normalized Per Cell,"[1]; donor 2, Conc. 10 X",0.9180
same,Fold Change IL-6 Secretion Normalized Per Cell,"[1]; donor 2, Conc. 20 X",0.8111
same,Fold Change IL-6 Secretion Normalized Per Cell,"[1]; donor 2, Conc. 40 X",0.7064
same,"IL-6 cytokine secretion, per-cell normalized, fold change from plasma amino acid background","[1]; primary human hepatic stellate cells, two donors, TNFα 3 ng/mL, 12 hours",reduced IL-6 secretion in both donors but was only statistically significant in one of two donors
same,TNFa Measurements Mean,"[2]; Donor 1, Conc. 0 X (baseline)",0
same,TNFa Measurements Mean,"[2]; Donor 1, Conc. 5 X",−326.24
same,TNFa Measurements Mean,"[2]; Donor 1, Conc. 10 X",−446.88
same,TNFa Measurements Mean,"[2]; Donor 1, Conc. 20 X",−561.33
same,TNFa Measurements Mean,"[2]; Donor 1, Conc. 40 X",−644.49
same,Donor 2 TNFa Measurements Mean,"[2]; Donor 2, Conc. 0 X (baseline)",9.47E−15
same,Donor 2 TNFa Measurements Mean,"[2]; Donor 2, Conc. 5 X",−54.1596
same,Donor 2 TNFa Measurements Mean,"[2]; Donor 2, Conc. 10 X",−70.8382
same,Donor 2 TNFa Measurements Mean,"[2]; Donor 2, Conc. 20 X",−88.6528
same,Donor 2 TNFa Measurements Mean,"[2]; Donor 2, Conc. 40 X",−103.984
same,Donor 3 TNFa Measurements Mean,"[2]; Donor 3, Conc. 0 X (baseline)",4.74E−15
same,Donor 3 TNFa Measurements Mean,"[2]; Donor 3, Conc. 5 X",−33.6246
same,Donor 3 TNFa Measurements Mean,"[2]; Donor 3, Conc. 10 X",−41.7266
same,Donor 3 TNFa Measurements Mean,"[2]; Donor 3, Conc. 20 X",−48.4373
same,Donor 3 TNFa Measurements Mean,"[2]; Donor 3, Conc. 40 X",−55.3093
same,LPS-induced TNFα secretion,[2]; Donor 1,significantly reduced
same,LPS-induced TNFα secretion,[2]; Donor 2,significantly reduced
same,LPS-induced TNFα secretion,[2]; Donor 3,significantly reduced
same,IL-6 Measurements Mean,"[3]; Donor 1, Conc. 0 X (baseline)",0
same,IL-6 Measurements Mean,"[3]; Donor 1, Conc. 5 X",308.1772
same,IL-6 Measurements Mean,"[3]; Donor 1, Conc. 10 X",−121.142
same,IL-6 Measurements Mean,"[3]; Donor 1, Conc. 20 X",−553.802
same,IL-6 Measurements Mean,"[3]; Donor 1, Conc. 40 X",−914.194
same,IL-6 Measurements Mean,"[3]; Donor 2, Conc. 0 X (baseline)",−2.4E−15
same,IL-6 Measurements Mean,"[3]; Donor 2, Conc. 5 X",−0.7946
same,IL-6 Measurements Mean,"[3]; Donor 2, Conc. 10 X",−9.751
same,IL-6 Measurements Mean,"[3]; Donor 2, Conc. 20 X",−24.9999
same,IL-6 Measurements Mean,"[3]; Donor 2, Conc. 40 X",−33.7585
same,IL-6 Measurements Mean,"[3]; Donor 3, Conc. 0 X (baseline)",−9.5E−15
same,IL-6 Measurements Mean,"[3]; Donor 3, Conc. 5 X",−70.3269
same,IL-6 Measurements Mean,"[3]; Donor 3, Conc. 10 X",−103.586
same,IL-6 Measurements Mean,"[3]; Donor 3, Conc. 20 X",−122.656
same,IL-6 Measurements Mean,"[3]; Donor 3, Conc. 40 X",−140.851
same,LPS-induced IL-6 secretion,[3]; Donor 1,significantly reduced
same,LPS-induced IL-6 secretion,[3]; Donor 2,significantly reduced
same,LPS-induced IL-6 secretion,[3]; Donor 3,significantly reduced
